The results in this text go back to PMC12693167, “Design, Synthesis and Anticancer Activity of 6-Substituted-1-(3,4,5-trimethoxyphenyl)-1H-indole Against Tubulin Polymerisation” (Molecules, 2025).

Entries after “also recorded” stand apart in the source; their conditions may differ.

Data set [1] relates to microtubule network in MCF-7 cells. Kind of data set: Immunofluorescence staining of microtubules. In kind it is cell-based, human. As to conditions: 0.1, 1 and 10 μM, 24 h. On the procedure:
Given the potent in vitro antiproliferative activity of compound 3g, its effects on microtubule organization were further investigated using immunofluorescence staining in MCF-7 cells. […] The network appeared disassembled and fragmented in a dose-dependent manner, indicating significant cytoskeletal destabilization.
MCF-7 cells were seeded on glass coverslips in 24-well plates and then treated with vehicle control 0.1% DMSO, 3g (0.1, 1, 10 μM) for 24 h. The cells were fixed with 4% paraformaldehyde and then permeabilized with PBS containing 0.2% Triton X-100. After blocking for 30 min by adding 100 μL of goat serum albumin at room temperature, cells were incubated with a β-tubulin polyclonal antibody (Proteintech, Wuhan Sanying Biotechnology, Wuhan, China, Cat# 10094-1-AP, 1:500 dilution) at 37 °C for 12 h. Then, the cells were washed three times with PBS and incubated with a secondary antibody (Beyotime, Shanghai, China, Cat# A0516, 1:500 dilution) for 1 h at room temperature. Nuclei were labeled with 4,6-diamidino-2-phenylindole (DAPI). Cells were finally visualized using a fluorescence microscope (Nikon TI2-E+A1R, Nikon Corporation, Tokyo, Japan).
Figure 5 Effects of compound 3g on microtubules. MCF-7 cells were treated with vehicle control 0.1% DMSO, compound 3g (0.1μM, 1μM, and 10 μM for 24 h). […]

A short description of data set [2]: In vivo tolerability (body weight, H&E histopathology of liver and kidney). More on the design: species or system mouse. On the procedure:
All animal procedures were approved by the Animal Ethics Committee of the Naval Medical University (permit number: EC11-055). Male BALB/c mice (6–8 weeks old, average initial body weight approximately 18–20 g) were purchased from Shanghai SLAC Laboratory Animal Co., Ltd. The inhibitory effect of compound 3g was evaluated using a subcutaneous B16-F10 melanoma xenograft model. Log-phase B16F10 cells were suspended in PBS and subcutaneously injected into mice (200 μL containing 8 × 10^5 cells per mouse) to establish tumors. Mice were randomly divided into control and treatment groups (n = 8). Compound 3g and paclitaxel were dissolved in a vehicle consisting of DMSO:PEG:Tween-80:saline (v/v/v/v, 5:35:10:50) to the desired concentrations. Treatments (paclitaxel, 10 mg/kg; compound 3g, 20 and 50 mg/kg, doses calculated on a body-weight basis) and vehicle were administered once daily via intraperitoneal injection for 14 consecutive days. Body weights were monitored throughout the study to assess acute toxicity. Tumor volumes were measured using calipers and calculated with the formula: a × b^2 × 0.5, where a and b represent the larger and smaller tumor diameters, respectively. On day 14, mice were sacrificed and tumors were excised and weighed. […] Major organs (liver and kidneys) were collected, fixed in 4% paraformaldehyde, processed into paraffin sections, stained with hematoxylin and eosin (H&E), and examined microscopically.
Figure 8 Compound 3g inhibits melanoma tumor growth in vivo. Murine melanoma B16-F10 xenograft tumors were established in mice, which were then administered vehicle, PTX (10 mg/kg per day), compound 3g (20 mg/kg per day), and compound 3g (50 mg/kg per day) for 14 days. The mice were sacrificed, and the tumors were weighed. (A) Images of tumors from mice at 14 days after initiation of treatment. (B) Body weight changes in mice during treatment. (C) Weight of the excised tumors of each group. * p < 0.05, and *** p < 0.001 vs. control group. (D) Tumor volume changes in mice during treatment. […]

Data set [3] concerns MCF-7 cells. Description: CCK-8 antiproliferative assay, MCF-7. Type of data set: cell-based. The settings on record: Homo sapiens, MCF7; cell viability (CCK-8), 48 h. On the procedure: To evaluate the anticancer potential of the synthesized compounds, a panel of six human and murine cancer cell lines representing different tissue origins was selected, including MCF-7 (human breast adenocarcinoma), MDA-MB-231 (human triple-negative breast cancer), A549 (human non-small cell lung cancer), HeLa (human cervical cancer), A375 (human melanoma), and B16-F10 (murine melanoma) (Table 2). […] DMSO was used as the vehicle control, and all experiments were performed in triplicate to ensure reproducibility.
Human breast cancer cells (MCF-7), human lung cancer cells (A549), human cervical cancer cells (HeLa), human triple-negative breast cancer cells (MDA-MB-231), and human malignant melanoma cells (A375) were cultured in DMEM. Mouse melanoma cells (B16F10) were maintained in RPMI-1640 medium. All media were supplemented with 10% fetal bovine serum and 1% penicillin-streptomycin (Life Technologies, Carlsbad, CA, USA) and maintained at 37 °C in a humidified atmosphere with 5% CO2.
The cytotoxicity of the test compounds was evaluated against MCF-7, A549, HeLa, MDA-MB-231, A375, and B16F10 using the CCK-8 assay. Cells were seeded into 96-well plates at a density of 5000 cells/well. After removing the medium, 100 μL of medium with 0.1% DMSO containing test compounds at different concentrations was added to each well and incubated at 37 °C for another 48 h. The CCK-8 solution was added and incubated for another 1 h, and then, the absorbance was detected with a microplate reader at a wavelength of 450 nm. The IC50 values were calculated by nonlinear regression analysis using GraphPad Prism 8.0.2. All the experiments were repeated at least three times.
A general note: Tetrazolium assays rely on reduction of a dye to a coloured formazan, in cell work by metabolically active cells.

Data set [4] concerns MCF-7 cells. Kind of data set: Transwell migration assay. Type of data set: cell-based, human. As to conditions: 24 h exposure, dose-dependent. On the procedure:
The impact of compound 3g on MCF-7 cell migration was assessed using wound healing and transwell migration assays.
MCF-7 cells were seeded into six-well culture plates at a density of 5 × 10^5 cells per well for 24 h. After treatment with compounds 3g at different concentrations for 24 h, cells were harvested and inoculated on transwell filters ([…] pore size, Millipore, Billerica, MA, USA) in 24-well culture plates. The cells in the top chamber were cultured in the FBS-free medium, and those in the bottom chamber were cultured in the medium containing 10% FBS. The plates were cultivated for an additional 48 h, and the cells that had migrated to the bottom of the top chambers were fixed with 4% paraformaldehyde and then stained with 0.1% crystal violet. Images of migrated cells were obtained using an inverted microscope (Olympus IX73, Olympus Corporation, Tokyo, Japan).
Figure 4 Effect of compound 3g on the migration of MCF-7 breast cancer cells. (A) 3g inhibited the migration of MCF-7 cells at different concentrations in a dose-dependent manner. Representative images of wound healing were captured by an inverted microscope at 0 h and 24 h treatment. Scale bar = 200 μm. (B) Wound closure percentages in the different groups after treatment with 3g for 24 h. (C) Results of the transwell migration assay. […]

The mark [5] stands for this setting: 20 and 50 mg/kg i.p. daily, 14 days.

As a reminder, the IC50 is the concentration needed to halve the response being measured.

As to `COc1cc(-n2ccc3ccc(-c4ccc(C)c(C#N)c4)cc32)cc(OC)c1OC` [3g, 2-methyl-5-(1-(3,4,5-trimethoxyphenyl)-1H-indol-6-yl)benzonitrile], the microtubule architecture entry in data set [1] is reported as “progressive disruption”. Further, in data set [2] (20 mg/kg and 50 mg/kg), the systemic toxicity entry is on record as “without evident systemic toxicity”. Besides, in data set [2] (setting [5]), the body weight change result is recorded as “did not induce significant body weight loss”; the “histopathology of liver and kidneys (H&E)” value is “no overt toxicity; also recorded: did not reveal obvious morphological abnormalities”. Further, half-maximal inhibition in the data set on MCF-7 cells [3] (IC50) required 2940 ± 560 nM. In addition, in the data set with MCF-7 cells [4], the “number of cells traversing the membrane” value is given as “significant reduction”.
